Patent US12577245B2, “Sulfonyl benzamide derivatives as Bcl-2 inhibitors” (ASCENTAGE PHARMA (SUZHOU) CO., LTD., priority 2021, dated 2026)

Each compound was assayed against Bcl-2 G101V (Homo sapiens, UniProt P10415, G101V) (assay: Bcl-2 G101V inhibition, fluorescence polarization (Flu-BIM tracer) binding assay). Details: FP; 20 nM Bcl2, 5 nM Flu-BIM, 1 h incubation; read-out: Bcl-2 G101V (FP).
Compound CC1(C)CCC(CN2CCN(c3ccc(C(=O)NS(=O)(=O)c4ccc(NC[C@H]5CC[C@](C)(O)CC5)c([N+](=O)[O-])c4)c(Oc4cnc5[nH]ccc5c4)c3)CC2)=C(c2cc(-c3c(F)ccc(F)c3F)cs2)C1 [Example 54, 2-((1H-pyrrolo[2,3-b]pyridin-5-yl)oxy)-4-(4-((4,4-dimethyl-2-(4-(2,3,6-trifluorophenyl)thiophen-2-yl)cyclohex-1-en-1-yl)methyl)piperazin-1-yl)-N-((4-((((1r,4r)-4-hydroxy-4-methylcyclohexyl)methyl)amino)-3-nitrophenyl)sulfonyl)benzamide] has an IC50 of 33.2 nM.
CC1(C)CCC(CN2CCN(c3ccc(C(=O)NS(=O)(=O)c4ccc(NC[C@H]5CC[C@](C)(O)CC5)c([N+](=O)[O-])c4)c(Oc4cnc5[nH]ccc5c4)c3)CC2)=C(c2cc(-c3cc(F)cc(C#N)c3)cs2)C1 [Example 55, 2-((1H-pyrrolo[2,3-b]pyridin-5-yl)oxy)-4-(4-((2-(4-(3-cyano-5-fluorophenyl)thiophen-2-yl)-4,4-dimethylcyclohex-1-en-1-yl)methyl)piperazin-1-yl)-N-((4-((((1r,4r)-4-hydroxy-4-methylcyclohexyl)methyl)amino)-3-nitrophenyl)sulfonyl)benzamide] was tested, and the IC50 was 47.5 nM.
CC1(C)CCC(CN2CCN(c3ccc(C(=O)NS(=O)(=O)c4ccc(NC[C@H]5CC[C@](C)(O)CC5)c([N+](=O)[O-])c4)c(Oc4cnc5[nH]ccc5c4)c3)CC2)=C(c2cc(-c3ccc(C(C)(C)C#N)cc3)cs2)C1 [Example 56, 2-((1H-pyrrolo[2,3-b]pyridin-5-yl)oxy)-4-(4-((2-(4-(4-(2-cyanopropan-2-yl)phenyl)thiophen-2-yl)-4,4-dimethylcyclohex-1-en-1-yl)methyl)piperazin-1-yl)-N-((4-((((1r,4r)-4-hydroxy-4-methylcyclohexyl)methyl)amino)-3-nitrophenyl)sulfonyl)benzamide] was tested, and the IC50 was 27.6 nM.
For CN(C)c1ccccc1-c1csc(C2=C(CN3CCN(c4ccc(C(=O)NS(=O)(=O)c5ccc(NC[C@H]6COCCO6)c([N+](=O)[O-])c5)c(Oc5cnc6[nH]ccc6c5)c4)CC3)CCC(C)(C)C2)c1 [Example 58, (S)—N-((4-(((1,4-dioxan-2-yl)methyl)amino)-3-nitrophenyl)sulfonyl)-2-((1H-pyrrolo[2,3-b]pyridin-5-yl)oxy)-4-(4-((2-(4-(2-(dimethylamino)phenyl)thiophen-2-yl)-4,4-dimethylcyclohex-1-en-1-yl)methyl)piperazin-1-yl)benzamide], the IC50 was 34.1 nM.
CC1(C)CCC(CN2CCN(c3ccc(C(=O)NS(=O)(=O)c4ccc(NC[C@H]5CC[C@](C)(O)CC5)c([N+](=O)[O-])c4)c(Oc4cnc5[nH]ccc5c4)c3)CC2)=C(c2cc(-c3ccc(C(C)(C)O)cc3)cs2)C1 [Example 59, 2-((1H-pyrrolo[2,3-b]pyridin-5-yl)oxy)-N-((4-((((1r,4r)-4-hydroxy-4-methylcyclohexyl)methyl)amino)-3-nitrophenyl)sulfonyl)-4-(4-((2-(4-(4-(2-hydroxypropan-2-yl)phenyl)thiophen-2-yl)-4,4-dimethylcyclohex-1-en-1-yl)methyl)piperazin-1-yl)benzamide] gave an IC50 of 38.5 nM.
With CC1(C)CCC(CN2CCN(c3ccc(C(=O)NS(=O)(=O)c4ccc(NC[C@H]5CC[C@](C)(O)CC5)c([N+](=O)[O-])c4)c(Oc4cnc5[nH]ccc5c4)c3)CC2)=C(c2cc(-c3ccc(C(O)(C(F)(F)F)C(F)(F)F)cc3)cs2)C1 [Example 60, 2-((1H-pyrrolo[2,3-b]pyridin-5-yl)oxy)-4-(4-((2-(4-(4-(1,1,1,3,3,3-hexafluoro-2-hydroxypropan-2-yl)phenyl)thiophen-2-yl)-4,4-dimethylcyclohex-1-en-1-yl)methyl)piperazin-1-yl)-N-((4-((((1r,4r)-4-hydroxy-4-methylcyclohexyl)methyl)amino)-3-nitrophenyl)sulfonyl)benzamide] the IC50 was 34.1 nM.
With CC1(C)CCC(CN2CCN(c3ccc(C(=O)NS(=O)(=O)c4ccc(NC[C@H]5CC[C@](C)(O)CC5)c([N+](=O)[O-])c4)c(Oc4cnc5[nH]ccc5c4)c3)CC2)=C(c2cc(-c3ccc(C(C)(C)O)cc3F)cs2)C1 [Example 62, 2-((1H-pyrrolo[2,3-b]pyridin-5-yl)oxy)-4-(4-((2-(4-(2-fluoro-4-(2-hydroxypropan-2-yl)phenyl)thiophen-2-yl)-4,4-dimethylcyclohex-1-en-1-yl)methyl)piperazin-1-yl)-N-((4-((((1r,4r)-4-hydroxy-4-methylcyclohexyl)methyl)amino)-3-nitrophenyl)sulfonyl)benzamide] the IC50 was 23.7 nM.
With CC1(C)CCC(CN2CCN(c3ccc(C(=O)NS(=O)(=O)c4ccc(NC[C@H]5CC[C@](C)(O)CC5)c([N+](=O)[O-])c4)c(Oc4cnc5[nH]ccc5c4)c3)CC2)=C(c2cc(-c3c(F)cc(C(C)(C)O)cc3F)cs2)C1 [Example 63, 2-((1H-pyrrolo[2,3-b]pyridin-5-yl)oxy)-4-(4-((2-(4-(2,6-difluoro-4-(2-hydroxypropan-2-yl)phenyl)thiophen-2-yl)-4,4-dimethylcyclohex-1-en-1-yl)methyl)piperazin-1-yl)-N-((4-((((1r,4r)-4-hydroxy-4-methylcyclohexyl)methyl)amino)-3-nitrophenyl)sulfonyl)benzamide] the IC50 was 32.3 nM.
CC1(C)CCC(CN2CCN(c3ccc(C(=O)NS(=O)(=O)c4ccc(NC[C@H]5COCCO5)c([N+](=O)[O-])c4)c(Oc4cnc5[nH]ccc5c4)c3)CC2)=C(c2cc(-c3c(F)cc(C(C)(C)O)cc3F)cs2)C1 [Example 64, (S)—N-((4-(((1,4-dioxan-2-yl)methyl)amino)-3-nitrophenyl)sulfonyl)-2-((1H-pyrrolo[2,3-b]pyridin-5-yl)oxy)-4-(4-((2-(4-(2,6-difluoro-4-(2-hydroxypropan-2-yl)phenyl)thiophen-2-yl)-4,4-dimethylcyclohex-1-en-1-yl)methyl)piperazin-1-yl)benzamide] showed an IC50 of 37 nM.
CCC(O)(CC)c1cc(F)c(-c2csc(C3=C(CN4CCN(c5ccc(C(=O)NS(=O)(=O)c6ccc(NC[C@H]7CC[C@](C)(O)CC7)c([N+](=O)[O-])c6)c(Oc6cnc7[nH]ccc7c6)c5)CC4)CCC(C)(C)C3)c2)c(F)c1 [Example 67, 2-((1H-pyrrolo[2,3-b]pyridin-5-yl)oxy)-4-(4-((2-(4-(2,6-difluoro-4-(3-hydroxypentan-3-yl)phenyl)thiophen-2-yl)-4,4-dimethylcyclohex-1-en-1-yl)methyl)piperazin-1-yl)-N-((4-((((1r,4r)-4-hydroxy-4-methylcyclohexyl)methyl)amino)-3-nitrophenyl)sulfonyl)benzamide] showed an IC50 of 33.7 nM.
Work on [2H]C([2H])([2H])C(O)(c1cc(F)c(-c2csc(C3=C(CN4CCN(c5ccc(C(=O)NS(=O)(=O)c6ccc(NC[C@H]7CC[C@](C)(O)CC7)c([N+](=O)[O-])c6)c(Oc6cnc7[nH]ccc7c6)c5)CC4)CCC(C)(C)C3)c2)c(F)c1)C([2H])([2H])[2H] [Example 68, 2-((1H-pyrrolo[2,3-b]pyridin-5-yl)oxy)-4-(4-((2-(4-(2,6-difluoro-4-(2-hydroxypropan-2-yl-1,1,1,3,3,3-d6)phenyl)thiophen-2-yl)-4,4-dimethylcyclohex-1-en-1-yl)methyl)piperazin-1-yl)-N-((4-((((1r,4r)-4-hydroxy-4-methylcyclohexyl)methyl)amino)-3-nitrophenyl)sulfonyl)benzamide] yielded an IC50 of 27.8 nM.
For CC1(C)CCC(CN2CCN(c3ccc(C(=O)NS(=O)(=O)c4ccc(NC[C@H]5CC[C@](C)(O)CC5)c([N+](=O)[O-])c4)c(Oc4cnc5[nH]ccc5c4)c3)CC2)=C(c2cc(-c3c(F)cc(C(C)(O)C4CC4)cc3F)cs2)C1 (stereo partly drawn) [Example 69, 2-((1H-pyrrolo[2,3-b]pyridin-5-yl)oxy)-4-(4-((2-(4-(4-(1-cyclopropyl-1-hydroxyethyl)-2,6-difluorophenyl)thiophen-2-yl)-4,4-dimethylcyclohex-1-en-1-yl)methyl)piperazin-1-yl)-N-((4-((((1r,4r)-4-hydroxy-4-methylcyclohexyl)methyl)amino)-3-nitrophenyl)sulfonyl)benzamide], the IC50 was 29 nM.
Work on CC1(C)CCC(CN2CCN(c3ccc(C(=O)NS(=O)(=O)c4ccc(NC[C@H]5CC[C@](C)(O)CC5)c([N+](=O)[O-])c4)c(Oc4cnc5[nH]ccc5c4)c3)CC2)=C(c2cc(-c3cccc(C(C)(C)O)c3)cs2)C1 [Example 70, 2-((1H-pyrrolo[2,3-b]pyridin-5-yl)oxy)-N-((4-((((1r,4r)-4-hydroxy-4-methylcyclohexyl)methyl)amino)-3-nitrophenyl)sulfonyl)-4-(4-((2-(4-(3-(2-hydroxypropan-2-yl)phenyl)thiophen-2-yl)-4,4-dimethylcyclohex-1-en-1-yl)methyl)piperazin-1-yl)benzamide] yielded an IC50 of 36.9 nM.
In the case of CC1(C)CCC(CN2CCN(c3ccc(C(=O)NS(=O)(=O)c4ccc(NC[C@H]5CC[C@](C)(O)CC5)c([N+](=O)[O-])c4)c(Oc4cnc5[nH]ccc5c4)c3)CC2)=C(c2cc(-c3ccc(C(C)(C)O)c(F)c3)cs2)C1 [Example 71, 2-((1H-pyrrolo[2,3-b]pyridin-5-yl)oxy)-4-(4-((2-(4-(3-fluoro-4-(2-hydroxypropan-2-yl)phenyl)thiophen-2-yl)-4,4-dimethylcyclohex-1-en-1-yl)methyl)piperazin-1-yl)-N-((4-((((1r,4r)-4-hydroxy-4-methylcyclohexyl)methyl)amino)-3-nitrophenyl)sulfonyl)benzamide], the IC50 is reported as 20.3 nM.
In the case of CC(CO)c1ccc(-c2csc(C3=C(CN4CCN(c5ccc(C(=O)NS(=O)(=O)c6ccc(NC[C@H]7CC[C@](C)(O)CC7)c([N+](=O)[O-])c6)c(Oc6cnc7[nH]ccc7c6)c5)CC4)CCC(C)(C)C3)c2)c(F)c1 (stereo partly drawn) [Example 72, 2-((1H-pyrrolo[2,3-b]pyridin-5-yl)oxy)-4-(4-((2-(4-(2-fluoro-4-(1-hydroxypropan-2-yl)phenyl)thiophen-2-yl)-4,4-dimethylcyclohex-1-en-1-yl)methyl)piperazin-1-yl)-N-((4-((((1r,4r)-4-hydroxy-4-methylcyclohexyl)methyl)amino)-3-nitrophenyl)sulfonyl)benzamide], the IC50 is reported as 27 nM.
